According to patent publication US20020198254A1, “Polyamide analogs” (priority 2000, published 2002):
Values after ≈ are worked out from the molar mass of the structure shown. Read-outs that look alike come from different tables or passages of the source.

Experiments:
Format in all cases: cell-based
[1] = test system: VRE-UCD3 (vancomycin resistant enterococci); experiment: MIC assay, VRE strain UCD-3; details: 25 μg/mL Vancomycin - 24 h; for MIC: Enterococcus, VRE, read-out: MIC Assay VRE Strains: UCD-3 van25
Protocol: (§1) These assays are adapted from NCCLS protocols M7-A4 and M27-A (NCCLS vol 17:9 and vol 17:2) as modified by Sandven, S. Clin. Micro. (1999) 37:12, p.3856-3859. MIC values for Aspergillus fumigatus were determined using NCCLS protocol M38-P.
(§2) All compounds were dissolved in 100% DMSO to a stock concentration of 10 mM and use fresh or stored at −80° C. Stock compounds were kept frozen until needed and used freshly with no more then one freeze-thaw cycle. When used for test purposes, compounds were diluted in the appropriate media depending on the organism being tested.
(§3) For yeast and aspergillus species, seven 1:2 serial dilutions of compound in appropriate media buffered with MOPS at pH 7.0 were prepared such that the final starting test compound concentrations were 50.0 uM for yeast and 50 uM aspergillus species. For bacteria, dilutions were made in growth media used for the particular bacteria being tested.
(§4) Inoculums are made in the same manner as yeast except all dilutions are made in normal saline, with a final dilution of 1:200 and an inoculum of 10 μL. VRE are vancomycin resistant enterococci, BM4147 and UCD-3 represent two different sources of VRE. MRSA are […] resistant Staphylococcus Aureus.

[2] = test system: VRE-BM4147 (vancomycin resistant enterococci); experiment: MIC assay, VRE strain BM4147; details: 25 μg/mL Vancomycin - 24 h; for MIC: Enterococcus, VRE, read-out: MIC Assay VRE Strains: BM4147 van25
Protocol: as §1, §2, §3, §4

[3] = test system: Bacillus cereus; experiment: MIC assay, B. cereus; details: CAMHB, 16 h; for MIC: Bacillus cereus, read-out: MIC Assay Other Strains: B. cereus
Protocol: as §1, §2, §3, §4

[4] = test system: Pseudomonas aeruginosa; experiment: MIC assay, P. aeruginosa; details: CAMHB, 16 h
Protocol: as §1, §2, §3, §4

[5] = test system: Staphylococcus aureus; experiment: MIC assay, S. aureus; details: CAMHB, 16 h
Protocol: as §1, §2, §3, §4

[6] = test system: Candida albicans; experiment: MIC assay, yeast C. albicans; details: RPMI, 48 h, Alamar Blue; for MIC: Candida albicans
[7] = test system: Aspergillus fumigatus; experiment: MIC assay, filamentous fungi A. fumigatus; details: 48 h at 35C, no visible growth; for MIC: Aspergillus fumigatus
[8] = test system: MRSA (methylacillin resistant Staphylococcus Aureus); experiment: MIC assay, MRSA; details: for MIC: Staphylococcus aureus, MRSA
Protocol: as §1, §2, §3, §4

[9] = test system: E coli; experiment: MIC assay, E coli
Protocol: as §1, §2, §3, §4

[10] = test system: WST-CEM T-cell line; experiment: Toxicity screen on WST-CEM T-cell line
Protocol: Toxicity screen was done on a WST-CEM T-cell line and the minimum percent verses a no drug control was measured.

[11] = WST-CEM T-cell line, ND = no drug control

Compound | MIC Assay VRE Strains: UCD-3 van25 [1] | MIC Assay VRE Strains: BM4147 van25 [2] | MIC Assay Other Strains: B. cereus [3] | MIC Assay Other Strains: P. aeruginosa [4] | MIC Assay Other Strains: S. aureus [5] | MIC Assay C. Albicans [6] | MIC [1] | MIC [6] | MIC [7] | MIC [9] | CEM: toxicity screen, minimum percent verses a no drug control [10, 11] | also measured
1,5-bis-{4-[(NH2(CH2)2CONH)-1-methyl-1H-pyrrol-2-yl-carbonylamino]-benzimidazole [Compound 77] | >45.5 µM | >45.5 µM | 22.7 µM | >45.5 µM | 45.5 µM | >44.4 µM | – | – | – | – | – | –
1,5-bis-{4-[(NH2(CH2)3CONH)-1-methyl-1H-pyrrol-2-yl-carbonylamino]-benzimidazole [Compound 78] | >45.5 µM | >45.5 µM | 22.7 µM | >45.5 µM | 45.5 µM | – | – | – | – | – | – | –
1,5-bis-{4-[(NH2CH2CONH)-1-methyl-1H-pyrrol-2-yl-carbonylamino]-benzimidazole [Compound 76] | >45.5 µM | >45.5 µM | >45.5 µM | >45.5 µM | >45.5 µM | >44.4 µM | – | – | – | – | – | –
Cn1cc(NC(=O)CNC(=N)N)cc1C(=O)Nc1ccc2[nH]c(NC(=O)c3cc(NC(=O)CNC(=N)N)cn3C)nc2c1 [Compound 79] | 11.4 µM | 45.5 µM | 11.4 µM (≈ 6.73 µg/mL) | >45.5 µM | >45.5 µM | – | – | – | – | – | – | –
Cn1cc(NC(=O)CCNC(=N)N)cc1C(=O)Nc1ccc2[nH]c(NC(=O)c3cc(NC(=O)CCNC(=N)N)cn3C)nc2c1 [Compound 80] | >45.5 µM | >45.5 µM | 5.7 µM (≈ 3.53 µg/mL) | >45.5 µM | >45.5 µM | >44.4 µM | – | – | – | – | – | –
Cn1cc(NC(=O)CCCNC(=N)N)cc1C(=O)Nc1ccc2[nH]c(NC(=O)c3cc(NC(=O)CCCNC(=N)N)cn3C)nc2c1 [Compound 81] | >45.5 µM | >45.5 µM | 5.7 µM (≈ 3.69 µg/mL) | >45.5 µM | 45.5 µM (≈ 29.4 µg/mL) | 22.2 µM (≈ 14.4 µg/mL) | – | – | – | – | – | –
NCC(=O)Nc1cc(C(=O)NCCNC(=O)c2cc(NC(=O)CN)cn2CC2CC2)n(CC2CC2)c1 [Compound 169, Bis-1,2-[4-(2-amino-acetylamino)-1-cyclopropylmethyl-1H-pyrrol-2-yl-carbonylamino]-ethane] | – | – | – | – | – | – | > 45.5 µM | > 44.4 µM | > 50 µM | 45.5 µM (≈ 22.7 µg/mL) | 100% ND | MIC [2]: > 45.5 µM; MIC [3]: > 45.5 µM; MIC [8]: > 45.5 µM
CC(C)C(N)C(=O)Nc1cc(C(=O)NCCNC(=O)c2cc(NC(=O)C(N)C(C)C)cn2CC2CC2)n(CC2CC2)c1 (stereo not shown) [Compound 170, Bis-1,2-[4-(2-amino-3-methyl-butyrylamino)-1-cyclopropylmethyl-1H-pyrrol-2-yl-carbonylamino]-ethane] | >45.5 µM | >45.5 µM | – | – | – | >44.4 µM | – | – | – | – | – | MIC Assay A fumigatus [7]: >50 µM; MIC Assay MRSA [8]: >45.5 µM; MIC Assay E coli [9]: >45.5 µM; CEM: toxicity screen, minimum percent verses a no drug control [10]: 90.0% ND
O=C(NC1CCC(NC(=O)c2cc(NC(=O)C3CCCN3)cn2CC2CC2)CC1)c1cc(NC(=O)C2CCCN2)cn1CC1CC1 (stereo not drawn) [Compound 171, Bis-trans-1,4-[4-(pyrrolidine-2-carbonyl-amino)-1-cyclopropylmethyl-1H-pyrrol-2-yl-carbonylamino]cyclohexane] | – | – | – | – | – | – | > 45.5 µM | > 44.4 µM | > 50 µM | > 45.5 µM | 91.1% ND | MIC [2]: > 45.5 µM; MIC [8]: > 45.5 µM
NCCCC(N)C(=O)N1CCCC1C(=O)Nc1cc(C(=O)NC2CCC(NC(=O)c3cc(NC(=O)C4CCCN4C(=O)C(N)CCCN)cn3CC3CC3)CC2)n(CC2CC2)c1 (stereo not drawn) [Compound 172, Bis-trans-1,4-{[4-(2,5-diamino-pentanoyl)pyrrolidine-2-carbonyl-amino]-1-cyclopropylmethyl-1H-pyrrol-2-yl-carbonylamino}cyclohexane] | >45.5 µM | >45.5 µM | – | – | – | >44.4 µM | – | – | – | – | – | MIC Assay A fumigatus [7]: >50 µM; MIC Assay MRSA [8]: >45.5 µM; MIC Assay E coli [9]: >45.5 µM; CEM: toxicity screen, minimum percent verses a no drug control [10]: 25.5% ND
NC(Cc1c[nH]cn1)C(=O)Nc1cc(C(=O)NC2CCC(NC(=O)c3cc(NC(=O)C(N)Cc4c[nH]cn4)cn3CC3CC3)CC2)n(CC2CC2)c1 (stereo not drawn) [Compound 173, Bis-trans-1,4-{4-[2-amino-3-(1H-imidazol-4-yl)propyonylamino]-1-cyclopropylmethyl-1H-pyrrol-2-yl-carbonylamino]cyclohexane] | >45.5 µM | >45.5 µM | – | – | – | >44.4 µM | – | – | – | – | – | MIC Assay A fumigatus [7]: >50 µM; MIC Assay MRSA [8]: >45.5 µM; MIC Assay E coli [9]: >45.5 µM; CEM: toxicity screen, minimum percent verses a no drug control [10]: 87.2% ND
N=C(N)NCC(=O)Nc1cc(C(=O)NCCNC(=O)c2cc(NC(=O)CNC(=N)N)cn2CC2CC2)n(CC2CC2)c1 [Compound 174] | – | – | – | – | – | – | > 45.5 µM | > 44.4 µM | > 50 µM | > 45.5 µM | 92.9% ND | MIC [2]: > 45.5 µM; MIC [8]: > 45.5 µM
CC(C)CCn1cc(NC(=O)CN)cc1C(=O)Nc1ccc2ccc(NC(=O)c3cc(NC(=O)CN)cn3CCC(C)C)cc2c1 [Compound 188b] | – | – | 22.7 µM (≈ 14.3 µg/mL) | – | – | 22.2 µM (≈ 14 µg/mL) | – | – | – | – | 9.2% ND | MIC Assay A fumigatus [7]: >50 µM; MIC Assay E coli [9]: 22.7 µM (≈ 14.3 µg/mL)
CC(C)CCn1cc(NC(=O)CNC(=N)N)cc1C(=O)Nc1ccc(NC(=O)c2cc(NC(=O)CNC(=N)N)cn2CCC(C)C)cc1 [Compound 189a] | – | – | – | – | – | – | 11.4 µM | 22.2 µM (≈ 14.7 µg/mL) | 12.5 µM (≈ 8.28 µg/mL) | 11.4 µM (≈ 7.56 µg/mL) | 7.7% ND | MIC [2]: 11.4 µM; MIC [3]: 2.8 µM (≈ 1.86 µg/mL)
CC(C)CCn1cc(NC(=O)CNC(=N)N)cc1C(=O)Nc1ccc2ccc(NC(=O)c3cc(NC(=O)CNC(=N)N)cn3CCC(C)C)cc2c1 [Compound 189b] | – | – | – | – | – | – | 5.7 µM | – | 3.1 µM (≈ 2.21 µg/mL) | 45.5 µM (≈ 32.4 µg/mL) | 10.2% ND | MIC [3]: 2.8 µM (≈ 2 µg/mL)
CC/N=C(/NCCN(C)C)Nc1cc(C(=O)Nc2ccc(NC(=O)c3cc(N/C(=N/CC)NCCN(C)C)cn3CCC(C)C)cc2)n(CCC(C)C)c1 [Compound 191] | – | – | – | – | – | – | 11.4 µM | 11.1 µM (≈ 8.29 µg/mL) | 12.5 µM (≈ 9.34 µg/mL) | 22.7 µM (≈ 17 µg/mL) | 3.7% ND | MIC [3]: 5.7 µM (≈ 4.26 µg/mL)
